Reference: ChEMBL document CHEMBL1151685, “Structure-activity relationship of antibacterial chalcones” (2008)
In brackets after ≈: the same amount, converted by molar mass.

How the values were obtained:
Format in all cases: functional
[1] = tested on: Escherichia coli; assay: Antibacterial activity against Escherichia coli ATCC 25922 after 24 hrs by microdilution broth method; conditions: ATCC 25922, 24 h
[2] = tested on: Pseudomonas aeruginosa; assay: Antibacterial activity against Pseudomonas aeruginosa ATCC 27853 after 24 hrs by microdilution broth method; conditions: ATCC 27853, 24 h
[3] = tested on: Staphylococcus aureus; assay: Antibacterial activity against Staphylococcus aureus ATCC 25923 after 24 hrs by microdilution broth method; conditions: ATCC 25923, 24 h
[4] = tested on: Bacillus cereus; assay: Antibacterial activity against Bacillus cereus ATCC 11778 after 24 hrs by microdilution broth method; conditions: ATCC 11778, 24 h

Row | MIC [1] [µg/mL] | MIC [2] [µg/mL] | MIC [3] [µg/mL] | MIC [4] [µg/mL] | Compound | MBC [1] [µg/mL] | MBC [2] [µg/mL] | MBC [3] [µg/mL] | MBC [4] [µg/mL]
1 | 1000 (≈ 3.93 mM) | 1000 (≈ 3.93 mM) | 2000 (≈ 7.87 mM) | 2000 (≈ 7.87 mM) | COc1ccc(C(=O)/C=C/c2ccc(O)cc2)cc1 | 2000 (≈ 7.87 mM) | 2000 (≈ 7.87 mM) | 2000 (≈ 7.87 mM) | 2000 (≈ 7.87 mM)
2 | 2000 (≈ 8.84 mM) | 1000 (≈ 4.42 mM) | 500 (≈ 2.21 mM) | 500 (≈ 2.21 mM) | O=C(CCc1ccccc1O)c1ccccc1 | 2000 (≈ 8.84 mM) | 2000 (≈ 8.84 mM) | 500 (≈ 2.21 mM) | 500 (≈ 2.21 mM)
3 | 2000 (≈ 5.91 mM) | 2000 (≈ 5.91 mM) | 2000 (≈ 5.91 mM) | 2000 (≈ 5.91 mM) | COc1ccc(C(=O)/C=C/c2ccccc2O)c(O)c1CC=C(C)C | 2000 (≈ 5.91 mM) | 2000 (≈ 5.91 mM) | > 2000 | 2000 (≈ 5.91 mM)
4 | 2000 (≈ 5.81 mM) | 2000 (≈ 5.81 mM) | 2000 (≈ 5.81 mM) | 2000 (≈ 5.81 mM) | COc1cc(OC)c(C(=O)CCc2ccc3c(c2)OCO3)cc1OC | 2000 (≈ 5.81 mM) | 2000 (≈ 5.81 mM) | 2000 (≈ 5.81 mM) | 2000 (≈ 5.81 mM)
5 | 2000 (≈ 5.67 mM) | 2000 (≈ 5.67 mM) | 2000 (≈ 5.67 mM) | 2000 (≈ 5.67 mM) | COc1ccc(/C=C/C(=O)c2ccc(OC)c(CC=C(C)C)c2O)cc1 | > 2000 | 2000 (≈ 5.67 mM) | 2000 (≈ 5.67 mM) | 2000 (≈ 5.67 mM)
6 | 1000 (≈ 2.55 mM) | 1000 (≈ 2.55 mM) | 31.2 (≈ 0.0795 mM) | 15.6 (≈ 0.0397 mM) | CC(C)=CCC/C(C)=C\Cc1c(O)ccc(C(=O)/C=C/c2ccc(O)cc2)c1O | 2000 (≈ 5.1 mM) | 2000 (≈ 5.1 mM) | 31.2 (≈ 0.0795 mM) | 15.6 (≈ 0.0397 mM)
7 | 2000 (≈ 5.91 mM) | 2000 (≈ 5.91 mM) | 2000 (≈ 5.91 mM) | 1000 (≈ 2.96 mM) | COc1ccc(C(=O)/C=C/c2cccc(O)c2)c(O)c1CC=C(C)C | 2000 (≈ 5.91 mM) | 2000 (≈ 5.91 mM) | 2000 (≈ 5.91 mM) | 1000 (≈ 2.96 mM)
8 | 2000 (≈ 5.91 mM) | 2000 (≈ 5.91 mM) | 7.8 (≈ 0.023 mM) | 3.9 (≈ 0.0115 mM) | COc1ccc(C(=O)/C=C/c2ccc(O)cc2)c(O)c1CC=C(C)C | 2000 (≈ 5.91 mM) | 2000 (≈ 5.91 mM) | 7.8 (≈ 0.023 mM) | 3.9 (≈ 0.0115 mM)
9 | > 2000 | 2000 (≈ 5.15 mM) | > 2000 | > 2000 | COc1cc(OC)c(OC)cc1/C=C/C(=O)c1cc(OC)c(OC)cc1OC | > 2000 | 2000 (≈ 5.15 mM) | > 2000 | > 2000
10 | 1000 (≈ 2.59 mM) | 1000 (≈ 2.59 mM) | 2000 (≈ 5.18 mM) | 2000 (≈ 5.18 mM) | COc1ccc(/C=C/C(=O)c2c(OC)cc(OC)c(OC)c2OC(C)=O)cc1 | > 2000 | 2000 (≈ 5.18 mM) | > 2000 | > 2000
11 | 1000 (≈ 2.79 mM) | 2000 (≈ 5.58 mM) | 2000 (≈ 5.58 mM) | 2000 (≈ 5.58 mM) | COc1cc(OC)c(OC)cc1/C=C/C(=O)c1ccc(OC)c(OC)c1 | > 2000 | > 2000 | > 2000 | > 2000
12 | 2000 (≈ 6.17 mM) | 2000 (≈ 6.17 mM) | 2000 (≈ 6.17 mM) | 1000 (≈ 3.08 mM) | CC(C)=CCOc1ccc(C(=O)/C=C/c2ccc(O)cc2)c(O)c1 | > 2000 | 2000 (≈ 6.17 mM) | 2000 (≈ 6.17 mM) | 1000 (≈ 3.08 mM)
13 | 2000 (≈ 6.36 mM) | 1000 (≈ 3.18 mM) | 2000 (≈ 6.36 mM) | 1000 (≈ 3.18 mM) | COc1ccc(/C=C/C(=O)c2cc(OC)c(OC)cc2O)cc1 | > 2000 | > 2000 | > 2000 | > 2000
14 | 2000 (≈ 5.37 mM) | 2000 (≈ 5.37 mM) | > 2000 | 2000 (≈ 5.37 mM) | COc1cc(OC)c(C(=O)/C=C/c2ccc3c(c2)OCO3)c(OC)c1OC | 2000 (≈ 5.37 mM) | 2000 (≈ 5.37 mM) | > 2000 | > 2000
15 | 2000 (≈ 5.15 mM) | 2000 (≈ 5.15 mM) | 2000 (≈ 5.15 mM) | 2000 (≈ 5.15 mM) | COc1ccc(C(=O)/C=C/c2c(OC)cc(OC)c(OC)c2OC)cc1OC | > 2000 | > 2000 | > 2000 | 2000 (≈ 5.15 mM)
16 | 2000 (≈ 6.09 mM) | 2000 (≈ 6.09 mM) | 1000 (≈ 3.05 mM) | 250 (≈ 0.761 mM) | COc1ccccc1/C=C/C(=O)c1cc(OC)c(OC)cc1OC | 2000 (≈ 6.09 mM) | 2000 (≈ 6.09 mM) | 1000 (≈ 3.05 mM) | 250 (≈ 0.761 mM)
17 | 1000 (≈ 2.17 mM) | 1000 (≈ 2.17 mM) | 31.2 (≈ 0.0677 mM) | 15.6 (≈ 0.0339 mM) | CC(C)=CCC/C(C)=C\Cc1c(O)ccc(C(=O)/C=C/c2ccc(O)c(CC=C(C)C)c2)c1O | 2000 (≈ 4.34 mM) | 2000 (≈ 4.34 mM) | 31.2 (≈ 0.0677 mM) | 15.6 (≈ 0.0339 mM)
18 | 2000 (≈ 5.43 mM) | 2000 (≈ 5.43 mM) | 2000 (≈ 5.43 mM) | 2000 (≈ 5.43 mM) | COc1cc(C(=O)CCc2ccccc2)c(OC)c(CC=C(C)C)c1OC | 2000 (≈ 5.43 mM) | 2000 (≈ 5.43 mM) | > 2000 | 2000 (≈ 5.43 mM)
19 | 1000 (≈ 3.52 mM) | 1000 (≈ 3.52 mM) | 1000 (≈ 3.52 mM) | 1000 (≈ 3.52 mM) | COc1ccc(C(=O)/C=C/c2ccccc2O)cc1OC | 2000 (≈ 7.03 mM) | > 2000 | 2000 (≈ 7.03 mM) | 1000 (≈ 3.52 mM)
20 | 2000 (≈ 7.45 mM) | 1000 (≈ 3.73 mM) | 1000 (≈ 3.73 mM) | 1000 (≈ 3.73 mM) | COc1ccc(C(=O)/C=C/c2ccccc2)cc1OC [3',4'-DIMETHOXYCHALCONE] | 1000 (≈ 3.73 mM) | 2000 (≈ 7.45 mM) | 2000 (≈ 7.45 mM) | 1000 (≈ 3.73 mM)
21 | > 2000 | 2000 (≈ 7.45 mM) | > 2000 | > 2000 | COc1ccc(/C=C/C(=O)c2ccc(OC)cc2)cc1 [4,4'-DIMETHOXYCHALCONE] | > 2000 | 2000 (≈ 7.45 mM) | > 2000 | > 2000
22 | 2000 (≈ 6.2 mM) | 2000 (≈ 6.2 mM) | 1000 (≈ 3.1 mM) | 1000 (≈ 3.1 mM) | CC1(C)C=Cc2cc(C(=O)/C=C/c3ccc(O)cc3)c(O)cc2O1 [4-HYDROXYISOLONCHOCARPIN] | > 2000 | > 2000 | > 2000 | > 2000
23 | 2000 (≈ 6.49 mM) | 2000 (≈ 6.49 mM) | 2000 (≈ 6.49 mM) | 2000 (≈ 6.49 mM) | CC(C)=CCOc1ccc(C(=O)/C=C/c2ccccc2)c(O)c1 [CORDOIN] | > 2000 | 2000 (≈ 6.49 mM) | > 2000 | 2000 (≈ 6.49 mM)
24 | 1000 (≈ 3.08 mM) | 1000 (≈ 3.08 mM) | 31.2 (≈ 0.0962 mM) | 31.2 (≈ 0.0962 mM) | CC(C)=CCc1c(O)ccc(C(=O)/C=C/c2ccc(O)cc2)c1O [ISOBAVACHALCONE] | 1000 (≈ 3.08 mM) | 2000 (≈ 6.17 mM) | 31.2 (≈ 0.0962 mM) | 31.2 (≈ 0.0962 mM)
25 | 2000 (≈ 6.49 mM) | 2000 (≈ 6.49 mM) | 2000 (≈ 6.49 mM) | 2000 (≈ 6.49 mM) | CC(C)=CCc1c(O)ccc(C(=O)/C=C/c2ccccc2)c1O [ISOCORDOIN] | 2000 (≈ 6.49 mM) | 1000 (≈ 3.24 mM) | 2000 (≈ 6.49 mM) | 2000 (≈ 6.49 mM)
26 | 2000 (≈ 6.53 mM) | 2000 (≈ 6.53 mM) | 2000 (≈ 6.53 mM) | 1000 (≈ 3.26 mM) | CC1(C)C=Cc2cc(C(=O)/C=C/c3ccccc3)c(O)cc2O1 [ISOLONCHOCARPIN] | > 2000 | > 2000 | > 2000 | > 2000
27 | 1000 (≈ 3.26 mM) | 2000 (≈ 6.53 mM) | 2000 (≈ 6.53 mM) | 2000 (≈ 6.53 mM) | CC1(C)C=Cc2c(ccc(C(=O)/C=C/c3ccccc3)c2O)O1 [LONCHOCARPIN] | 1000 (≈ 3.26 mM) | 2000 (≈ 6.53 mM) | 2000 (≈ 6.53 mM) | 2000 (≈ 6.53 mM)

Row | Compound | MIC [1] [µg/mL] | MIC [2] [µg/mL] | MIC [3] [µg/mL] | MIC [4] [µg/mL] | MBC [1] [µg/mL] | MBC [2] [µg/mL] | MBC [3] [µg/mL] | MBC [4] [µg/mL]
28 | COc1ccc(C(=O)/C=C/c2ccccc2)c(O)c1CC=C(C)C [DERRICIN] | 2000 (≈ 6.2 mM) | 2000 (≈ 6.2 mM) | 2000 (≈ 6.2 mM) | 2000 (≈ 6.2 mM) | 2000 (≈ 6.2 mM) | 2000 (≈ 6.2 mM) | > 2000 | 2000 (≈ 6.2 mM)
29 | O=C(/C=C/c1ccc(O)cc1)c1ccc(O)cc1O [ISOLIQUIRITIGENIN] | 2000 (≈ 7.8 mM) | 2000 (≈ 7.8 mM) | 62.5 (≈ 0.244 mM) | 62.5 (≈ 0.244 mM) | 2000 (≈ 7.8 mM) | 2000 (≈ 7.8 mM) | 62.5 (≈ 0.244 mM) | 62.5 (≈ 0.244 mM)
30 | O=C(CCc1ccc(O)cc1)c1c(O)cc(O)cc1O [PHLORETIN] | > 2000 | 2000 (≈ 7.29 mM) | 250 (≈ 0.912 mM) | 250 (≈ 0.912 mM) | 1000 (≈ 3.65 mM) | 2000 (≈ 7.29 mM) | 250 (≈ 0.912 mM) | 250 (≈ 0.912 mM)
31 | CN(C)[C@@H]1C(O)=C(C(N)=O)C(=O)[C@@]2(O)C(O)=C3C(=O)c4c(O)cccc4[C@@](C)(O)[C@H]3C[C@@H]12 [TETRACYCLINE] | 2 (≈ 0.0045 mM) | 32 (≈ 0.072 mM) | 1 (≈ 0.00225 mM) | 0.25 (≈ 0.000563 mM) | – | – | – | –
